From paper PMC10844371 (Diabetologia, 2023)
pIC50: −log10 of the molar value. Where two headings read alike, the source gives them in different places.

What was measured:
P/Q-type Ca^2+ channels = test: [Ca2+]i imaging of depolarisation-evoked Ca2+ entry in alpha cells (Gcg-GCaMP6f islets); assay type: cell-based, mouse; conditions: 10 pmol/l, 70 mmol/l [K+]o, isradipine 10 μmol/l; n=139 cells from 4 mice
Method: For live-cell cytoplasmic free Ca^2+ concentration ([Ca^2+]i) imaging experiments, Gcg-GCaMP6f islets were immobilised to a poly-L-lysine-coated coverslip fixed in a custom-built imaging chamber filled with EC3 (ESM Table 2). [Ca^2+]i was measured in islets from mice expressing GCaMP6f in alpha cells. [Ca^2+]i imaging experiments were then performed using an inverted LSM 510 confocal microscope (Zeiss) controlled with ZEN Black (Zeiss), using a ×40/1.3 oil immersion objective. Time-lapse images were collected every 0.98 s with a frame size of 256×256 pixels, with the bath solution (EC3) perfused at a rate of 0.4 ml/min and heated to 37°C. GCaMP6f was excited by an argon laser (488 nm) and emission was collected at 510 nm.
[Ca^2+]i imaging videos were analysed using the Fiji imaging processing package. The mean fluorescence (F) of each region of interest was normalised to baseline signal (F0) and expressed as F/F0 before exporting into ClampFit (version 10.7; Molecular Devices, CA, USA), where baseline was corrected and AUC was calculated.

human alpha cells = test: TIRF imaging of docked secretory granules in human alpha cells; assay type: cell-based; conditions: 10 pmol/l
Method: Cells were imaged using total internal reflection fluorescence (TIRF) microscopy (AxioObserver Z1 with a ×100/1.45 objective [Carl Zeiss] and a diode-pumped solid state laser at 491 nm). For these measurements, EC1 was used (ESM Table 2). Images from cells infected with preproglucagon promoter (PPPG)-neuropeptide Y (NPY)-enhanced green fluorescent protein (EGFP) virus were recorded using an electron-multiplying charge-coupled device camera (Photometrics Evolve) using ZEN blue. Single images of cells were acquired to measure the number of docked granules. Incoming and outgoing granules during visiting, docking and undocking were determined from multiple frame movies as described previously. Candidate docking or undocking events were found manually as granules that approached the TIRF field with an axial component and became laterally confined for at least two frames. We defined docking as granules that remained confined for at least 1 min. Visitors were those granules that remained for <1 min after appearing at the plasma membrane. Undocking was defined as slow movement of a previously docked granule away from its docking site. Granule density was calculated using a script that used the built-in ‘find maxima’ function in ImageJ (version 1.53c; http://rsbweb.nih.gov/ij) for spot detection.

[1] = system: isolated mouse pancreatic islets; test: Somatostatin secretion in isolated mouse islets (RIA); assay type: cell-based; conditions: 10–10,000 pmol/l, 1 mmol/l glucose
Method: (§1) Mouse islets were used acutely, except for studies with PTX, wherein islets were treated overnight with the toxin. Human islets were maintained in culture for up to 48 h in RPMI medium containing 10% (vol./vol.) FCS, 1% (vol./vol.) penicillin/streptomycin and 5 mmol/l glucose. Experiments were conducted as previously described. Islets were incubated in 0.3 ml EC1 or EC2 media (ESM Table 2) supplemented with glucose and other reagents as indicated. Glucagon was determined by ELISA (Mercodia).
(§2) Insulin and somatostatin were determined by RIA (Millipore and Diasource ImmunoAssays, respectively) as described previously. In these experiments, rates of release are expressed as % of contents unless otherwise indicated.

[2] = system: PKA activity in alpha cells; test: PKA activity measurements (AKAR3) in alpha cells in intact islets; assay type: cell-based, mouse
Method: PKA activity was measured using AKAR3 as previously described. The cells were continuously superfused at a rate of 60 μl/min with EC4 (ESM Table 2).

[3] = system: isolated mouse pancreatic islets; assay type: cell-based; conditions: for glucagon secretion, % of that at 1 mmol/l glucose: mean ± SEM
Method: Experiments were conducted as previously described. Islets were incubated in 0.3 ml EC1 or EC2 media (ESM Table 2) supplemented with glucose and other reagents as indicated.
All data are reported, unless otherwise stated, as mean values ± SEM for the indicated number of experiments using islets from multiple mice. For hormone release studies, islets were isolated and pooled from 4–16 mice. These islets were then subdivided into groups of 12–20 size-matched islets. Each unique set of islets counted as an experiment with the experiments repeated on 2–4 days. Similarly, each unique group of human islets was treated as an experiment. […] In the Ca^2+ imaging and granule docking experiment, each cell represents an experiment making sure that cells from multiple donors/animals were used. For the in vivo experiments and the perfused pancreas, each mouse count represents an experiment. For two groupings, a t test was conducted. For multiple comparisons, one-way ANOVA was conducted. All statistical tests were performed using Graphpad Prism (version 9.1.0; graphpad.com).

[4] = mouse, in vivo, ip
Method: C57Bl6N mice were fasted for 5 h prior to the ITTs. GLP-1(9–36) (100 µg/kg body weight) was injected intraperitoneally before or with insulin as indicated. The relative high dose of GLP-1(9–36) was used because of high basal levels of the peptide. In the control experiments, mice were injected with the saline solvent (154 mmol/l NaCl). […] Total GLP-1 was measured by ELISA (81508; Crystal Chem, Zaandam, the Netherlands; CV<10%).

[5] = system: isolated mouse pancreatic islets; test: Insulin secretion in isolated mouse islets (RIA); assay type: cell-based
Method: as §1, with “indicated.” for “indicated. Glucagon was determined by ELISA (Mercodia).”
as §2

Question: What does the source list for `CC[C@H](C)[C@H](NC(=O)[C@H](Cc1ccccc1)NC(=O)[C@H](CCC(=O)O)NC(=O)[C@H](CCCCN)NC(=O)[C@H](C)NC(=O)[C@H](C)NC(=O)[C@H](CCC(N)=O)NC(=O)CNC(=O)[C@H](CCC(=O)O)NC(=O)[C@H](CC(C)C)NC(=O)[C@H](Cc1ccc(O)cc1)NC(=O)[C@H](CO)NC(=O)[C@H](CO)NC(=O)[C@@H](NC(=O)[C@H](CC(=O)O)NC(=O)[C@H](CO)NC(=O)[C@@H](NC(=O)[C@H](Cc1ccccc1)NC(=O)[C@@H](NC(=O)CNC(=O)[C@@H](N)CCC(=O)O)[C@@H](C)O)[C@@H](C)O)C(C)C)C(=O)N[C@@H](C)C(=O)N[C@@H](Cc1c[nH]c2ccccc12)C(=O)N[C@@H](CC(C)C)C(=O)N[C@H](C(=O)N[C@@H](CCCCN)C(=O)NCC(=O)N[C@@H](CCCNC(=N)N)C(N)=O)C(C)C` [GLP-1(9–36)]?
Answer: reduction of depolarisation-induced P/Q-type Ca2+ channel-mediated Ca2+ entry (P/Q-type Ca^2+ channels): 34±4%; increase of docking (human alpha cells; alpha cells from donors with type 2 diabetes): 40%; reduction of the number of docked granules (human alpha cells; alpha cells from healthy donors, after 15 min): 52%; effect on somatostatin secretion [1]: No stimulatory effects; effect on PKA activity in the presence of L-168049 ([2]; 10 and 100 pmol/l, L-168049 100 nmol/l): without effect; inhibitory effect on PKA activity after PTX pretreatment ([2]; PTX pretreatment): abolished; concentrations at which the decrease in cAMP/PKA activity was maximal ([2]; alpha cells in intact mouse islets): > 10 pmol/L; glucagon secretion, % of that at 1 mmol/l glucose ([3]; 10 pmol/l GLP-1(9–36) in the presence of REMD2.59 100 nmol/l): 110±4%; inhibitory effect on glucagon secretion in Glp1r−/− mouse islets ([3]; 10 pmol/l, Glp1r−/− islets, 1 mmol/l glucose): persisted; glucagonostatic effect in the presence of exendin(9–39) ([3]; 10 pmol/l, exendin(9–39) 1 μmol/l, 1 mmol/l glucose): retained their glucagonostatic effect; inhibition of glucagon secretion ([3]; 30 pmol/l, 1 mmol/l glucose): 55%; change of glucagon secretion compared with 10 mmol/l glucose alone ([3]; 30 pmol/l, 10 mmol/l glucose): −50%; glucagon secretion, % of that at 1 mmol/l glucose ([3]; 1000 pmol/l GLP-1(9–36) in the presence of REMD2.59 100 nmol/l): 76±5%; glucagonostatic effect in the presence of the PKA inhibitor 8-Br-Rp-cAMPS ([3]; 8-Br-Rp-cAMPS 10 μmol/l, 1 mmol/l glucose): retains its glucagonostatic capacity; pIC50 ([3]; 48 h): 11.40; inhibition of amino acid-induced glucagon secretion ([3]; AA 6 mmol/l (2 mmol/l each glutamine, alanine, arginine), 1 mmol/l glucose): −66%; reduction of isoprenaline-stimulated glucagon secretion ([3]; in the presence of isoprenaline): 75%; inhibition of glucagon secretion ([3]; islets cultured overnight without PTX, 1 mmol/l glucose): ~ 50%; reduction of glucagon secretion evoked by 70 mmol/l [K+]o ([3]; membrane depolarisation, 70 mmol/l extracellular K+): 60%; inhibitory effect on glucagon secretion after PTX pretreatment ([3]; overnight PTX 100 ng/ml, 1 mmol/l glucose): almost abolished; expected inhibition of glucagon secretion by circulating levels ([3]; ~30 pmol/l, from the dose–inhibition curves established in vitro): up to 80%; time for which plasma GLP-1 remained at >100 pmol/l [4]: > 45 min; effect on insulin secretion ([5]; 30 pmol/l alone, at 1 or 10 mmol/l glucose): did not increase insulin secretion; effect on insulin secretion ([5]; 10–10,000 pmol/l, mouse islets, 1 mmol/l glucose): No stimulatory effects
